Test results from ChEMBL document CHEMBL1201862, “PubChem BioAssay data set” (2004).
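The compound was tested at five concentrations on cells cultured in 96-well plates, with a 48-hour exposure period. The concentration for 50% growth inhibition is given as GI50.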 The source made the active and inactive calls. Rule as the data show it: active = GI50 up to about 1.1 µM and inactive = higher.

Columns and labels:
Test in all cases: NCI-60 cell line screen, 48 h
SK-MEL-2 = tested on: SK-MEL-2
UO-31 = tested on: UO-31
SK-MEL-5 = tested on: SK-MEL-5
IGROV-1 = tested on: IGROV-1
HCT-116 = tested on: HCT-116
OVCAR-3 = tested on: OVCAR-3
HCT-15 = tested on: HCT-15
NCI/ADR-RES = tested on: NCI/ADR-RES
MOLT-4 = tested on: MOLT-4
OVCAR-5 = tested on: OVCAR-5
HL-60 = tested on: HL-60
Hs-578T = tested on: Hs-578T
NCI-H460 = tested on: NCI-H460
A549 = tested on: A549
M14 = tested on: M14
SR = tested on: SR
MDA-MB-231 = tested on: MDA-MB-231
MDA-MB-435 = tested on: MDA-MB-435

SMILES | GI50 (SK-MEL-2) | GI50 (UO-31) | GI50 (SK-MEL-5) | GI50 (IGROV-1) | GI50 (HCT-116) | GI50 (OVCAR-3) | GI50 (HCT-15) [µM] | GI50 (NCI/ADR-RES) | GI50 (MOLT-4) | GI50 (OVCAR-5) | GI50 (HL-60) | GI50 (Hs-578T) | GI50 (NCI-H460) | GI50 (A549) | GI50 (M14) | GI50 (SR) | GI50 (MDA-MB-231) | GI50 (MDA-MB-435)
C=C1CC/C=C(\C)CCC[C@H](C)[C@@H](O)[C@@H]2OC(=O)C(=C)[C@@H]2C[C@H]1O | 13.3 µM (inactive) | 6.22 µM (inactive) | 5.05 µM (inactive) | 3.88 µM (inactive) | 6.47 µM (inactive) | 9.12 µM (inactive) | 3.42 | 8.3 µM (inactive) | 2.13 µM (inactive) | 17.3 µM (inactive) | 2.42 µM (inactive) | 7.91 µM (inactive) | 8.99 µM (inactive) | 17.1 µM (inactive) | 4.75 µM (inactive) | 4.83 µM (inactive) | 14.9 µM (inactive) | 3.62 µM (inactive)
CN(C)c1ccc(/C=N/c2nc3cc4sc(/N=C/c5ccc(N(C)C)cc5)nc4cc3s2)cc1 | > 100 µM (inactive) | 92.7 µM (inactive) | > 100 µM (inactive) | > 100 µM (inactive) | 30.5 µM (inactive) | 36.9 µM (inactive) | > 100 | > 100 µM (inactive) | 12.9 µM (inactive) | > 100 µM (inactive) | 16.9 µM (inactive) | 18.1 µM (inactive) | 5.4 µM (inactive) | 12.8 µM (inactive) | > 100 µM (inactive) | 29.4 µM (inactive) | > 100 µM (inactive) | 33.7 µM (inactive)
O=C(Nc1sccc1S(=O)(=O)c1ccc(Cl)cc1)c1ccccc1 | > 100 µM (inactive) | > 100 µM (inactive) | > 100 µM (inactive) | > 100 µM (inactive) | > 100 µM (inactive) | > 100 µM (inactive) | > 100 | > 100 µM (inactive) | > 100 µM (inactive) | > 100 µM (inactive) | > 100 µM (inactive) | > 100 µM (inactive) | > 100 µM (inactive) | > 100 µM (inactive) | > 100 µM (inactive) | > 100 µM (inactive) | > 100 µM (inactive) | > 100 µM (inactive)
CCOC(=O)c1c(SCCN(CC)CC)n(-c2ccccc2)c(=S)n(-c2ccccc2)c1=O | 13.4 µM (inactive) | 1.72 µM (inactive) | 2.61 µM (inactive) | 5.16 µM (inactive) | 3.87 µM (inactive) | 1.84 µM (inactive) | 2.54 | 32.1 µM (inactive) | 1.09 µM (active) | 30.3 µM (inactive) | 1.73 µM (inactive) | 3.32 µM (inactive) | 6.93 µM (inactive) | 3.16 µM (inactive) | 1.74 µM (inactive) | 0.714 µM (active) | 3.33 µM (inactive) | 2.23 µM (inactive)
O=CC(I)=C(c1ccccc1)c1ccccc1 | 16.9 µM (inactive) | 14.3 µM (inactive) | 17.3 µM (inactive) | 19.2 µM (inactive) | 14.2 µM (inactive) | 13.2 µM (inactive) | 14.1 | 20 µM (inactive) | 11.3 µM (inactive) | 21.8 µM (inactive) | 6.5 µM (inactive) | 24.5 µM (inactive) | 17.5 µM (inactive) | 19.5 µM (inactive) | 18.5 µM (inactive) | 6.92 µM (inactive) | 14.6 µM (inactive) | 17 µM (inactive)
Nc1ncnn2c(C3OC(CO)C(O)C3O)ccc12 (stereo not drawn) | 0.148 µM (active) | 0.12 µM (active) | 0.226 µM (active) | 0.21 µM (active) | 0.0216 µM (active) | 0.169 µM (active) | 0.138 | 0.237 µM (active) | 0.153 µM (active) | 0.338 µM (active) | 0.105 µM (active) | 0.0875 µM (active) | 0.097 µM (active) | 0.155 µM (active) | 0.0832 µM (active) | 0.0364 µM (active) | 0.153 µM (active) | 0.137 µM (active)
Oc1ccc(Cl)cc1-c1cc(-c2ccccc2)nc(NCN2CCCCC2)n1 | > 100 µM (inactive) | > 100 µM (inactive) | 15.8 µM (inactive) | > 100 µM (inactive) | 6.68 µM (inactive) | > 100 µM (inactive) | 5.02 | > 100 µM (inactive) | > 100 µM (inactive) | > 100 µM (inactive) | > 100 µM (inactive) | > 100 µM (inactive) | > 100 µM (inactive) | > 100 µM (inactive) | > 100 µM (inactive) | 4.19 µM (inactive) | > 100 µM (inactive) | > 100 µM (inactive)
COc1ccc(/C=C2\N=C(c3ccccc3)OC2=O)cc1OC(C)=O | 27.5 µM (inactive) | 58.7 µM (inactive) | 63 µM (inactive) | 82.8 µM (inactive) | 58.9 µM (inactive) | 48.9 µM (inactive) | 49.4 | > 100 µM (inactive) | 0.615 µM (active) | > 100 µM (inactive) | 41.1 µM (inactive) | 26.3 µM (inactive) | > 100 µM (inactive) | > 100 µM (inactive) | 99.8 µM (inactive) | 15.2 µM (inactive) | 46.5 µM (inactive) | 51.8 µM (inactive)
CCOC1C=CC(=O)C(CO)O1 (stereo not drawn) | 19.4 µM (inactive) | 2.21 µM (inactive) | 21.1 µM (inactive) | 12.9 µM (inactive) | 5.12 µM (inactive) | 6.73 µM (inactive) | 10 | 14.9 µM (inactive) | 6.65 µM (inactive) | 18.1 µM (inactive) | 5.57 µM (inactive) | 23.3 µM (inactive) | 14.5 µM (inactive) | 17.6 µM (inactive) | 15 µM (inactive) | 1.99 µM (inactive) | 17.3 µM (inactive) | 12.2 µM (inactive)
FC(F)(F)c1ccccc1N1CCN(c2nc(-c3cccs3)nc3ccc(Br)cc23)CC1 | 24.9 µM (inactive) | 47.8 µM (inactive) | 14.6 µM (inactive) | 11.6 µM (inactive) | 33.2 µM (inactive) | 10.9 µM (inactive) | 7.46 | 41.8 µM (inactive) | 44.5 µM (inactive) | 27.6 µM (inactive) | 36.4 µM (inactive) | 36.5 µM (inactive) | 27.7 µM (inactive) | 33.8 µM (inactive) | 38.7 µM (inactive) | 31.6 µM (inactive) | 21 µM (inactive) | 23.9 µM (inactive)
COC(=O)[C@H](COC(C)(C)C)NC(=O)N[C@H](C)c1ccccc1 | > 100 µM (inactive) | > 100 µM (inactive) | > 100 µM (inactive) | > 100 µM (inactive) | > 100 µM (inactive) | > 100 µM (inactive) | > 100 | > 100 µM (inactive) | > 100 µM (inactive) | > 100 µM (inactive) | > 100 µM (inactive) | > 100 µM (inactive) | > 100 µM (inactive) | > 100 µM (inactive) | > 100 µM (inactive) | > 100 µM (inactive) | > 100 µM (inactive) | > 100 µM (inactive)
N#Cc1c(N2CCCC2)ncn(-c2ccccc2)c1=O | > 100 µM (inactive) | > 100 µM (inactive) | > 100 µM (inactive) | > 100 µM (inactive) | > 100 µM (inactive) | > 100 µM (inactive) | > 100 | > 100 µM (inactive) | > 100 µM (inactive) | > 100 µM (inactive) | > 100 µM (inactive) | > 100 µM (inactive) | > 100 µM (inactive) | > 100 µM (inactive) | > 100 µM (inactive) | > 100 µM (inactive) | > 100 µM (inactive) | > 100 µM (inactive)
O=C(O)c1cccc(OCCOc2cccc(C(=O)O)c2[N+](=O)[O-])c1[N+](=O)[O-] | > 100 µM (inactive) | > 100 µM (inactive) | > 100 µM (inactive) | > 100 µM (inactive) | > 100 µM (inactive) | > 100 µM (inactive) | > 100 | > 100 µM (inactive) | > 100 µM (inactive) | > 100 µM (inactive) | > 100 µM (inactive) | > 100 µM (inactive) | > 100 µM (inactive) | > 100 µM (inactive) | > 100 µM (inactive) | > 100 µM (inactive) | > 100 µM (inactive) | > 100 µM (inactive)
N=C(N)c1ccc(C(NC(=O)CNS(=O)(=O)c2ccc3ccccc3c2)P(=O)(Oc2ccccc2)Oc2ccccc2)cc1 (stereo not drawn) | > 100 µM (inactive) | 40.3 µM (inactive) | 39.1 µM (inactive) | 31.8 µM (inactive) | 37.8 µM (inactive) | > 100 µM (inactive) | 48.5 | 69.5 µM (inactive) | 21 µM (inactive) | 32.6 µM (inactive) | 14.2 µM (inactive) | 35.2 µM (inactive) | > 100 µM (inactive) | 54.1 µM (inactive) | 45.2 µM (inactive) | 29.4 µM (inactive) | 41.2 µM (inactive) | 35.6 µM (inactive)
Cn1c(N)cc(=O)nc1N | > 100 µM (inactive) | > 100 µM (inactive) | > 100 µM (inactive) | > 100 µM (inactive) | > 100 µM (inactive) | > 100 µM (inactive) | > 100 | > 100 µM (inactive) | > 100 µM (inactive) | > 100 µM (inactive) | > 100 µM (inactive) | > 100 µM (inactive) | > 100 µM (inactive) | > 100 µM (inactive) | > 100 µM (inactive) | > 100 µM (inactive) | > 100 µM (inactive) | > 100 µM (inactive)
Oc1ccc(-c2nc(-c3cccnc3)c(-c3ccc(Cl)cc3)[nH]2)cc1 | 18.2 µM (inactive) | 10.8 µM (inactive) | 12.1 µM (inactive) | 10.9 µM (inactive) | 13.4 µM (inactive) | 12.5 µM (inactive) | 12.1 | 14.5 µM (inactive) | 2.52 µM (inactive) | 19.3 µM (inactive) | 6.95 µM (inactive) | 19.4 µM (inactive) | 11.1 µM (inactive) | 15.3 µM (inactive) | 13.1 µM (inactive) | 5.43 µM (inactive) | 16.2 µM (inactive) | 12.3 µM (inactive)
